Reference: US5382525A, “Method of effecting increased performance of diagnostic enzyme reaction systems using noble gases” (American Air Liquide, priority 1992, dated 1995)

Key:
particulate sialidase = details: Sandhoff et al 1976; called questionable, highly impure enzymes; cited from earlier work
Urease EC 3.5.1.5 = target: T1, Urease EC 3.5.1.5 (Canavalia ensiformis, UniProt P07374); assay: Urea Nitrogen Diagnostic Kit (640) stop-flow gas run; assay type: biochemical, jack beans; details: 37° C.; relative to air
T1 construct: purchased Sigma 640-5; host or cells: jack beans
T1 sequence (P07374 whole entry, looked up): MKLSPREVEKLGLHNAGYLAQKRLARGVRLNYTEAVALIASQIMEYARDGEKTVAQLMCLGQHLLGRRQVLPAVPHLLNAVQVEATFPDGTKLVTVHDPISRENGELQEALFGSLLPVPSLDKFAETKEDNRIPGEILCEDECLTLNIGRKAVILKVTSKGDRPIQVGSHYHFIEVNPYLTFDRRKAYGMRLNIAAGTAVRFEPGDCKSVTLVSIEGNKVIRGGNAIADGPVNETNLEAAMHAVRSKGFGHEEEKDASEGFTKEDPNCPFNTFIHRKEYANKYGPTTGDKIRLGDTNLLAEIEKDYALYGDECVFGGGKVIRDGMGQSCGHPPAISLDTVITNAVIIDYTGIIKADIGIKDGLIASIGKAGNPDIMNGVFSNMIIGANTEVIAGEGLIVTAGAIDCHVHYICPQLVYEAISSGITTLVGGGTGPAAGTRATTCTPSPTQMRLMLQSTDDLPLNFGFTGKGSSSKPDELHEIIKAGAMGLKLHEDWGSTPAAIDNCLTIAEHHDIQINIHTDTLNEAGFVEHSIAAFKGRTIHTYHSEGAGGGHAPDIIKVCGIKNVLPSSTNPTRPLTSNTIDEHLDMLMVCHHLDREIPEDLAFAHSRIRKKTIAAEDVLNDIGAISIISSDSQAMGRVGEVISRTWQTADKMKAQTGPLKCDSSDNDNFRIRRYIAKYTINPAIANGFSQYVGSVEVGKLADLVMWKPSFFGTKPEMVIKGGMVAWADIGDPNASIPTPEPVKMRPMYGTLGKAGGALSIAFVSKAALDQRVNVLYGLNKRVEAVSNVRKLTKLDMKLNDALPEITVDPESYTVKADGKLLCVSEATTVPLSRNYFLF
Text: Urea Nitrogen Diagnostic Kit (640) Protocol For Gas Run
Urea Nitrogen (Sigma Diagnostic Kit, Procedure No. 640)
Sigma No. 640-5 Buffered Urease from jack beans 100 units when prepared according to directions (3.33 units/ml). Sodium azide added as preservative. Store in refrigerator. Note expiration date: JUNE 1993
PRINCIPLE: Urea is hydrolyzed by urease to ammonia and carbon dioxide. [drawing 6] Ammonia then reacts with alkaline hypochlorite and phenol in the presence of a catalyst, sodium nitroprusside [Na2 Fe[CN]5 NO.2H2 O], to form indophenol. The concentration of ammonia is directly proportional to the absorbance of indophenol, which is measured spectrophotometrically at 570 nm. [drawing 7] Note: Ammonia free water (DI H2 O should be ok) is necessary for this procedure, Make sure to rinse everything with DI H2 O before use, If the blank has more than a trace of blue color ammonia contamination should be suspected.
PROCEDURE FOR STOP-FLOW GAS EXPERIMENT
In a 100 cc serum vial place 20 ml Urease soln (Soln A1). Stopper, seal and crimp. Bubble 400 ml of gas through (using the 500 ml gas-tight syringe). Superimpose 100 ml of gas, vial will be under positive pressure.
Sample 0.4 ml Urea Nitrogen Standard Solution 1 from gassed 3 cc vial. Add to the gassed 100 cc serum vial (containing 20 ml Soln A1). Start stop watch, gently swirl vial.
Take 0.5 ml samples every minute. Place the 0.5 ml sample into the corresponding 10 cc vial to stop the reaction. Inject immediately 1 ml Alkaline Hypochlorite Solution followed by 5 ml D.I. H2 O.
Let the 15×10 cc vials sit and develop color for 30 minutes. a 1 wavelength "scan" (see software) should be run: 3 ml per cuvette. Read vs a blank of 3 ml Soln B.
Spectrophotometric study procedure: 37° C.
(§1) The following consists of example results obtained from gas runs. Negative numbers indicate an inhibition of the enzyme activity. Positive numbers indicate an enhancement of the enzyme activity

[1] = target: T2, Alcohol dehydrogenase EC 1.1.1.1 (Saccharomyces cerevisiae, UniProt P00330); assay: Alcohol [Ethanol] Diagnostic Kit Sigma No. 332-UV gas run; assay type: biochemical, yeast; details: relative to air
T2 construct: purchased Sigma 330-1; host or cells: yeast
T2 sequence (P00330 1-348): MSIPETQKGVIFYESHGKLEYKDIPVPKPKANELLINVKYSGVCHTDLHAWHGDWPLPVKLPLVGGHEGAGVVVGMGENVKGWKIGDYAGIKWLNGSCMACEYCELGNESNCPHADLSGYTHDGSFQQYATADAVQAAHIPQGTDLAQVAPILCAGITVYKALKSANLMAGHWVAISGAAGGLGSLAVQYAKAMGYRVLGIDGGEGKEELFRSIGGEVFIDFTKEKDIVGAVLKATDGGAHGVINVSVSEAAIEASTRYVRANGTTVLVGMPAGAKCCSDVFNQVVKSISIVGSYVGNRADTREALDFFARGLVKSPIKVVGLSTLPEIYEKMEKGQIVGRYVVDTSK
Experimental: Alcohol [Ethanol] Diagnostic Kit Sigma Diagnostic Kit No. 332-UV Gas Run Protocol
SIGMA Diagnostic Kit 332-BT (Procedure No. 332-UV)
The NAD-ADH vials, when reconstituted according to the directions, contain approximately the following concentrations of active ingredients: NAD, 0.6 μmol/ml, alcohol dehydrogenase [yeast], 50 U/ml, and stabilizers. […]
Step 1: Prepare diluted Ethanol Standard Solution by mixing 4.0 ml Glycine Buffer Reagent (332-9) with 0.5 ml Ethanol Standard Solution (330-20). Cap until ready for use. 4 substrate concentrations: […]
Inject 1×3 cc of gas in silicone-sealed cuvettes No 2nd and 3rd 3 cc gas injection: NAD-ADH solution squirts back in the syringes because of foam formation due to bubbling. Store cuvettes overnight in refrigerator (0°-5° C.) under two 3 cc syringes, in the dark. […]
Remove the G1 cuvettes out from the fridge. Bubble 2×3 cc of gas. Place cuvettes (under two 3 cc syringes filled up with the appropriate gas) in cell holder.
Sample diluted Ethanol Standard Solution with 1 cc syringes, pick syringes into silicone, push plungers simultaneously, run timedrives.
as §1

[2] = independent of oxygen partial pressure; Schreiner; cited from earlier work
[3] = test system: Alkaline Phosphatase (EC 3.1.3.1); assay: Alkaline Phosphatase [ALP/AP] Sigma Kit No. 245-10 gas run; assay type: biochemical, Chicken; parameters: Rate Difference / Yield Difference: unit not given here; details: for rate of the alkaline phosphatase-catalyzed reaction (FIGS. 1-3): 10°, 25° and 35° C., saturation with the gas; for Yield Difference / Rate Difference: relative to air
Text: Alkaline Phosphatase [ALP/AP] Sigma Kit. No. 245-10 Gas Run Protocol
Phosphatase, Alkaline P-8008
(Orthophosphoric-monoester phosphohydrolase [alkaline optimum]; EC 3.1.3.1)
From Chicken Intestine 5.1 Units/mg solid (1 g solid) Lot# 115F-3806
SIGMA Diagnostic Kit 245-10 (Procedure No. 245)
PRINCIPLE [drawing 1] The hydrolysis occurs at alkaline pH. The formation of p-nitrophenol can be observed as an increase in absorbance at 405 nm. The rate of increase directly proportional at ALP activity. […]
as §1

[4] = test system: Acid Phosphatase (EC 3.1.3.2); assay: Acid Phosphatase Sigma Kit No. 435-A gas run; assay type: biochemical, Potato; details: for rate of the acid phosphatase-catalyzed reaction (FIG. 4): 10° C., saturation with the gas; for % Rate Difference / % Yield Difference: relative to air
Text: Acid Phosphatase Sigma Kit. No. 435-A Gas Run Protocol
(Orthophosphoric-monoester phosphohydrolase [acid optimum)]; EC 3.1.3.2)
From Potato 0.8 Units/mg solid (1 g solid) Lot# 17F-7285
SIGMA Diagnostic Kit 435-A (Procedure No. 435)
PRINCIPLE [drawing 3] Acid phosphatase [ACP] catalyzes the hydrolysis of α-Naphthyl phosphate to a-Naphthol and inorganic phosphate. α-Naphthol immediately reacts with fast red TR salt to produce a yellow chromophore with an absorbance maximum at 405 nm. The rate of increase in absorbance at 405 nm is directly proportional to ACP activity. […]
as §1

[5] = 10 °C, positive = enhancement, negative = inhibition of enzyme activity

Row | Compound | effect on activity of particulate sialidase (particulate sialidase) | % Rate Difference (Urease EC 3.5.1.5) | % Yield Difference (Urease EC 3.5.1.5) | % Rate Difference ([1]; 0.32% Ethanol, 10° C.) | % Yield Difference ([1]; 0.32% Ethanol, 10° C.) | rate of the alkaline phosphatase-catalyzed reaction (FIGS. 1-3) [3] | Yield Difference ([3]; 10 °C) | Rate Difference [3, 5] | Rate Difference ([3]; 25 °C) | Yield Difference ([3]; 25 °C) | Rate Difference ([3]; 35 °C) | Yield Difference ([3]; 35 °C) | rate of the acid phosphatase-catalyzed reaction (FIG. 4) [4] | % Rate Difference ([4]; 10 °C) | % Yield Difference ([4]; 10 °C) | % Rate Difference ([4]; 25 °C) | % Yield Difference ([4]; 25 °C) | % Rate Difference ([4]; 35 °C) | % Yield Difference ([4]; 35 °C) | % Rate Difference ([1]; 0.24% Ethanol, 10° C.) | further results
1 | FC(F)(F)C(Cl)Br (centres unmarked) [halothane] | enhance the activity | – | – | – | – | – | – | – | – | – | – | – | – | – | – | – | – | – | – | – | –
2 | [Ne] [Ne, neon] | – | 3.1% | 3.1% | 12.1% | 3.9% | – | – | – | – | – | – | – | – | – | – | – | – | – | – | – | –
3 | [N-]=[N+]=O [nitrous oxide] | enhance the activity | – | – | – | – | – | – | – | – | – | – | – | – | – | – | – | – | – | – | – | inhibition per atmosphere of added gas [2]: 1.9 % inhibition per atmosphere
4 | [Ar] [Ar, argon] | – | 9.4% | 9.4% | 5.2% | 2.3% | improvement of the rate | 33.3 | 33.3 | 3.0 | 3.0 | 30.4 | 30.4 | improvement of the rate | 8.4% | 9.4% | 12.2% | 9.2% | -1.4% | -0.42% | 9.0% | % Rate Difference ([1]; 0.08% Ethanol, 10° C.): 8.8%; % Yield Difference ([1]; 0.24% Ethanol, 10° C.): 8.3%; % Rate Difference ([1]; 0.24% Ethanol, 25° C.): -9.4%; % Yield Difference ([1]; 0.24% Ethanol, 25° C.): -6.6%
5 | [Xe] [Xe, xenon] | enhance the activity | 9.4% | 9.4% | 15.6% | 10.2% | improvement of the rate | 16.7 | 16.7 | 18.2 | 18.2 | 7.3 | 7.3 | improvement of the rate | 42.2% | 39.2% | 21.1% | 14.7% | 5.6% | 4.2% | 7.5% | % Yield Difference ([1]; 0.24% Ethanol, 10° C.): 10.0%; % Rate Difference ([1]; 0.24% Ethanol, 25° C.): -10.4%; % Yield Difference ([1]; 0.24% Ethanol, 25° C.): -8.0%
6 | [Kr] [Kr, krypton] | – | 0.0% | 0.0% | 8.6% | 4.7% | improvement of the rate | 1.7 | 1.7 | 9.1 | 9.1 | 4.3 | 4.3 | improvement of the rate | 18.1% | 16.0% | 13.3% | 7.3% | 1.4% | 1.3% | 11.9% | % Rate Difference ([1]; 0.08% Ethanol, 10° C.): 2.9%; % Yield Difference ([1]; 0.24% Ethanol, 10° C.): 14.2%; % Rate Difference ([1]; 0.24% Ethanol, 25° C.): -9.4%; % Yield Difference ([1]; 0.24% Ethanol, 25° C.): -4.4%
7 | N#N [N2, Nitrogen, reference compound] | – | 0.0% | – | – | – | – | 0 | 0 | 0 | 0 | 0 | 0 | – | – | – | – | – | – | – | – | –
